Entries after “also recorded” stand apart in the source; their conditions may differ. Like-named read-outs stand apart in the source and are kept apart here.
Columns and labels:
[1] = test system: p-Stat3 and β-catenin; assay: cancer stem cell markers in cancer xenograft models (immunofluorescence); type: in vivo, athymic nude mice; details: cancer xenograft tumor model, tumors harvested after first dosing; FIG. 6
Experimental: The effects of 2-acetylnaphtho[2,3-b]furan-4,9-dione on cancer stem cell markers was also examined in cancer xenograft models with and without irinotecan. Human cancer cells were subcutaneously implanted into the right flank of 5-7 weeks old female athymic nude mice. When tumor size reached 200 mm^3, animals were treated with 2-acetylnaphtho[2,3-b]furan-4,9-dione, irinotecan, or a combination of 2-acetylnaphtho[2,3-b]furan-4,9-dione and irinotecan. Tumors were harvested after first dosing.
The harvested tissues were fixed in 3.7% neutral buffered formaldehyde at 4° C. for overnight. The paraffin was embedded, cut to about 5 microns, and affixed onto positively charged slides. After being baked and de-paraffinized, the slides with tumor or control tissues were incubated in 10 mM Sodium Citrate (pH 6.0) for 10 minutes. After antigen retrieval, slides were probed with primary antibodies P-STAT3 (rabbit, Cell Signaling, 1:100), 13-Catenine (mouse, Santa Cruz, 1:400) at 4° C. overnight, and then Alexa Fluor fluorescent dyes-conjugated secondary antibodies (1:500, Invitrogen). After mounting with ProLong mounting medium with DAPI (Invitrogen), the slides were examined under a Zeiss fluorescence microscope with 20× objective, and analyzed with Zen software.

[2] = test system: FaDu cancer stem cells; assay: stemness gene expression versus chemo- and targeted therapeutics; type: cell-based; details: 24 hours, 2-acetylnaphtho[2,3-b]furan-4,9-dione 2 mM, sunitinib 20 mM, gemcitabine 2 mM, carboplatin 32 mM, FIGS. 4(A)-(D)
Experimental: FIGS. 4(A)-(D) depict FaDu cancer stem cells that were treated for 24 hours with DMSO and: (i) 2-acetylnaphtho[2,3-b]furan-4,9-dione (2 mM) (FIG. 4(A)), (ii) sunitinib (20 mM) (FIG. 4(B)), (iii) gemcitabine (2 mM) (FIG. 4(C)), or (iv) carboplatin (32 mM) (FIG. 4(D)).

[3] = test system: mCRC; details: Single Agent, panitumumab value for K-Ras WT, cited from earlier work
[4] = test system: cancer stem cells; assay: effects on cancer stem cells with and without 5-fluorouracil; type: cell-based; details: FIG. 7; versus 5-fluorouracil alone and both agents alone
Text: The effects on cancer stem cells of 2-acetylnaphtho[2,3-b]furan-4,9-dione was also examined with and without 5-fluorouracil by using methods similar to those disclosed in U.S. pre-grant Publication No. 2012/0252763, Example 3.

With `CCc1c2c(nc3ccc(OC(=O)N4CCC(N5CCCCC5)CC4)cc13)-c1cc3c(c(=O)n1C2)COC(=O)[C@]3(O)CC` [irinotecan, reference compound] the “staining for stem cell markers (p-Stat3 and β-catenin)” value [1] was “enhanced staining” and the “expression of self-renewal / CSC genes (β-Catenin, Nanog, Smo, Sox2)” value (“expression of self-renewal / CSC genes” below) [2] was “increased CSC gene expression in certain cases”.

In the case of `Nc1ccn([C@@H]2O[C@H](CO)[C@@H](O)C2(F)F)c(=O)n1` [gemcitabine], the “expression of self-renewal / CSC genes” value [2] is reported as “increased CSC gene expression in certain cases”.

In the case of `CCCCCOC(=O)Nc1nc(=O)n([C@@H]2O[C@H](C)[C@@H](O)[C@H]2O)cc1F` [Capecitabine, capecitabine], the “Historical DCR (in Evaluable patients with mCRC)” value [3] is given as 15% and the “Historical DCR (in Evaluable patients with mCRC)” value ([3]; listed as capecitabine) is given as 15%.

In the case of `CNC(=O)c1cc(Oc2ccc(NC(=O)Nc3ccc(Cl)c(C(F)(F)F)c3)c(F)c2)ccn1` [regorafenib], the “expression of self-renewal / CSC genes” value [2] is reported as “increased CSC gene expression in certain cases”.

With “5-fluorouracil and 2-acetylnaphtho[2,3-b]furan-4,9-dione” the “effect of the combination on cancer stem cells / cancer stem cell growth” value [4] was “attenuated; also recorded: greater than additive effect”.

Source: patent US20180098959A1, “METHODS FOR TREATING CANCER” (BOSTON BIOMEDICAL, INC., priority 2015, published 2018)
